Data from PMC6766655, “AhR–ROR-γt complex is a therapeutic target for MAP4K3/GLK^highIL-17A^high subpopulation of systemic lupus erythematosus” (The FASEB Journal, 2019).

Legend:
EAE mice = experiment: MOG-induced EAE in wild-type C57BL/6J mice; format: in vivo; conditions: 0.4 μg/g body weight i.v. every 3 d
HPK1 (MAP4K1) = target: T1, HPK1 (MAP4K1) (Homo sapiens, UniProt Q92918); experiment: In vitro kinase assay, myelin basic protein as substrate (ADP-Glo); format: biochemical; conditions: recombinant kinase domain
T1 construct: Recombinant proteins of kinase domains of various MAP4Ks were used; purchased Promega
T1 sequence (Q92918 17-274 limits assumed): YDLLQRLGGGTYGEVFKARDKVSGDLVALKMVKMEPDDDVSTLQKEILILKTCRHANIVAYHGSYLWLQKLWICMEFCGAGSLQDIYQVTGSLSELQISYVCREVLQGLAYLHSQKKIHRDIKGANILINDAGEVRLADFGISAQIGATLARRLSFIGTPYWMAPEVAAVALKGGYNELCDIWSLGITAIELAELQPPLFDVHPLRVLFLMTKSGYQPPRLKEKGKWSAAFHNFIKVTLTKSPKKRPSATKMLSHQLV

HGK (MAP4K4) = target: T2, HGK (MAP4K4) (Homo sapiens, UniProt O95819); experiment: as above; format: biochemical; conditions: recombinant kinase domain
T2 construct: Recombinant proteins of kinase domains of various MAP4Ks were used; purchased Promega

Lck-GLK Tg mice = experiment: Serum cytokines and autoantibodies (ELISA) in Lck-GLK Tg mice; format: in vivo; conditions: 0.4 μg/g body weight i.v. every 3 d
Description: Lck-GLK Tg mice with C57BL/6J backgrounds and GLK-deficient mice with C57BL/6J backgrounds were generated as previously described ([18], [21]). Their respective wild-type littermates with C57BL/6J backgrounds were used as controls. Mice used in this report were either 20-wk-old sex-matched littermates or 8–10-wk-old sex-matched [all female for EAE, all male for collagen-induced arthritis (CIA)] C57BL/6J wild-type mice. All mice used in this study were maintained in temperature-controlled and pathogen-free cages. All animal experiments were performed in the Association for Assessment and Accreditation of Laboratory Animal Care–animal housing facilities at National Health Research Institutes. All mice were used according to the protocols and guidelines approved by the Institutional Animal Care and Use Committee of National Health Research Institutes.
Lck-GLK Tg mice were administered verteporfin (0.4 μg/g body weight) by intravenous injection every 3 d for a period of 30 d (Fig. 4A). […] Moreover, overproduction of autoantibodies (anti-nuclear antibody, anti-dsDNA antibody, and rheumatoid factor) in Lck-GLK Tg mice was also abolished by the verteporfin treatment for 30 d (Fig. 4C). […] To further verify that verteporfin is also effective in IL-17A–mediated animal models, we treated wild-type mice with verteporfin during induction of EAE and CIA.
Figure 4 Verteporfin (C1) suppresses IL-17 production and autoimmune responses in mice. A–C) Effect of C1 administration (0.4 μg/g body weight every 3 d for a period of 30 d) on serum IL-17A and autoantibodies in 20-wk-old Lck-GLK Tg mice. B) ELISA of serum IL-17A, IL-6, TNF-α, IFN-γ, and IL-17F in Lck-GLK Tg mice treated with C1 or PBS for 16 d. C) ELISA of serum autoantibodies in Lck-GLK Tg mice treated with C1 or PBS for 30 d. Means ± SEM are shown; n = 4/group. D) EAE induction in wild-type C57BL/6J mice treated with PBS or C1 (0.4 μg/g body weight every 3 d). Clinical scores are presented on a scale of 1–5. PBS group, n = 10; C1 group, n = 7. E) ELISA of IL-17A in the sera from MOG-immunized mice at day 16. […]

Th17 differentiation = experiment: In vitro Th17 differentiation of splenic T cells (flow cytometry of IL-17A-producing CD4+ T cells); format: cell-based, murine; conditions: 1 or 5 μM during differentiation, 3 days
Protocol: Supplementary Figure 5. Verteporfin inhibits both Th17 differentiation and IL-17A production from in vitro differentiated Th17 cells. (A) Flow cytometry of IL-17A-producing CD4^+ T cells. Splenic T cells were co-treated with verteporfin (C1) (1 or 5 μM) during Th17 differentiation in vitro (for 3 days). (B) Flow cytometry of IL-17A-producing CD4^+ T cells. Murine in vitro differentiated Th17 cells were stimulated with PMA plus ionomycin and co-treated with verteporfin (C1) (1 or 5 μM) for 30 min. Data shown are representatives of two independent experiments.

T2 sequence (O95819 25-289 limits assumed): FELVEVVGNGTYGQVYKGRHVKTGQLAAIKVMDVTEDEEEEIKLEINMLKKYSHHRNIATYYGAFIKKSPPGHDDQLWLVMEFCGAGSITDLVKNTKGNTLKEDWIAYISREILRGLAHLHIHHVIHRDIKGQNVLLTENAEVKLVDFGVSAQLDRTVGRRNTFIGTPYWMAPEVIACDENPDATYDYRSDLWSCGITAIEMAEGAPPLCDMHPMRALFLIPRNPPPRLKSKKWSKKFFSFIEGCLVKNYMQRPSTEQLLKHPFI

verteporfin
disease severity (clinical score), EAE (EAE mice): significantly suppressed | serum levels of IL-6, TNF-α, IFN-γ, and IL-4, EAE (EAE mice): not significantly decreased | serum IL-17A levels, EAE (EAE mice; day 16): significantly suppressed | IC50 (HPK1 (MAP4K1)): 7.91 nM | IC50 (HGK (MAP4K4)): 4.92 nM | serum levels of IL-6, TNF-α, IFN-γ, and IL-17F (Lck-GLK Tg mice; 16 d): not significantly changed | serum IL-17A (Lck-GLK Tg mice; 16 d, vs PBS): significantly decreased | overproduction of autoantibodies (anti-nuclear antibody, anti-dsDNA antibody, rheumatoid factor) (Lck-GLK Tg mice; 30 d): abolished | Th17 differentiation (Th17 differentiation): inhibited | Th17 differentiation (Th17 differentiation; listed as Verteporfin): inhibits
